Laboratory results as given in patent US8242280B2, “Fused ring heterocycle kinase modulators” (SGX Pharmaceuticals, Inc., priority 2007, dated 2012).

Legend:
[1] = target: T1, unphosphorylated T315I Abl kinase domain (Mus musculus, UniProt P00520, T315I); test: c-Abl T315I 0P bioassay (pyruvate kinase/lactate dehydrogenase coupled enzyme assay); assay type: biochemical; conditions: zero phosphorylation state (0P), 10 μM ATP, read-out: AbI T315I 0P IC50
T1 construct: purified and unphosphorylated T315I Abl kinase domain; made in house; host or cells: E. coli BL21(DE3) (Codon+RIL or pSA0145 strain)
T1 sequence (P00520 242-493 T315I limits assumed): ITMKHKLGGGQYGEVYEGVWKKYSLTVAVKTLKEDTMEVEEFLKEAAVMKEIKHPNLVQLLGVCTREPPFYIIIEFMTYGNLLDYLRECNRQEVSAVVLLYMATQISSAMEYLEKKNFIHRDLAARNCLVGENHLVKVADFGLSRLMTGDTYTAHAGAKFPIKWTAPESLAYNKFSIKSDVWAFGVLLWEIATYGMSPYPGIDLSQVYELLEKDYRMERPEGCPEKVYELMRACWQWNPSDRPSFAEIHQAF

Ba/F3 cells, ABL1 WT = Ba/F3 cells, ABL1 WT (Homo sapiens, UniProt P00519); test: 96-well XTT cell survival assay, Ba/F3 ABL1 WT; assay type: cell-based; conditions: 72 hours, read-out: ABL1 WT XTT [Ba/F3] IC50
In short: (§1)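 Ba/F3 cells carrying wild-type or T315I ABL1 were seeded at 5000-8000 per well with graded compound concentrations in duplicate and grown 72 hours at 37° C. Survival was read by XTT/PMS reduction after a further 2-6 h, as absorbance at 405 nm with 650 nm background correction.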

Ba/F3 cells, ABL1 T315I = Ba/F3 cells, ABL1 T315I (Homo sapiens, UniProt P00519, T315I, cells depend on it); test: 96-well XTT cell survival assay, Ba/F3 ABL1 T315I; assay type: cell-based; conditions: 72 hours, read-out: ABL1 T315I XTT [Ba/F3] IC50
In short: as §1

SMILES	IC50 [1]	GI50 (Ba/F3 cells, ABL1 WT)	GI50 (Ba/F3 cells, ABL1 T315I)
COc1ccccc1-c1c[nH]c2ncc(-c3cccc(C(N)CC(=O)N4CCC[C@@H]4CO)c3)cc12 (stereo partly drawn)	< 50 nM	> 1000 nM	> 1000 nM
COC(=O)C1=C(C)NC(=O)NC1c1cccc(-c2cnc3[nH]cc(-c4ccccc4OC)c3c2)c1 (stereo not drawn)	< 50 nM	> 1000 nM	> 1000 nM
COc1ccccc1-c1c[nH]c2ncc(-c3cccc(C4NC(=O)NC(C)=C4C(=O)N(C)C)c3)cc12 (stereo not drawn)	< 50 nM	> 1000 nM	> 1000 nM
COc1ccccc1-c1n[nH]c2ncc(-c3cccc(C(O)C(=O)N(C)CCN(C)C)c3)cc12 (stereo not drawn)	< 50 nM	< 1000 nM	< 1000 nM
CCN(CC)CCN(CC)C(=O)C(O)c1cccc(-c2cnc3[nH]nc(-c4ccccc4OC)c3c2)c1 (stereo not drawn)	< 50 nM	< 1000 nM	< 1000 nM
CN(C)C(=O)C(O)c1cncc(-c2cnc3[nH]cc(-c4ccc(Cl)cc4)c3c2)c1 (stereo not drawn)	< 50 nM	< 1000 nM	> 1000 nM
COc1ccccc1-c1c[nH]c2ncc(-c3cncc([C@@H](O)C(=O)N(C)C)c3)cc12	< 50 nM	< 1000 nM	< 1000 nM
COc1ccccc1-c1c[nH]c2ncc(-c3cncc([C@H](O)C(=O)N(C)C)c3)cc12	< 50 nM	< 1000 nM	< 1000 nM
CN(C)C(=O)C(O)c1cncc(-c2cnc3[nH]cc(-c4ccc(Cl)c(Cl)c4)c3c2)c1 (stereo not drawn)	< 50 nM	> 1000 nM	> 1000 nM
COc1ccc(F)cc1-c1c[nH]c2ncc(-c3cncc(C(O)C(=O)N(C)C)c3)cc12 (stereo not drawn)	< 50 nM	< 1000 nM	< 1000 nM
COc1ccccc1-c1c[nH]c2ncc(-c3cncc(C(=O)C(=O)N(C)C)c3)cc12	< 50 nM	< 1000 nM	< 1000 nM
COc1ccc(F)cc1-c1c[nH]c2ncc(-c3cc(C(O)C(=O)N(C)C)c[n+]([O-])c3)cc12 (stereo not drawn)	< 50 nM	> 1000 nM	> 1000 nM
Cc1ccc(-c2c[nH]c3ncc(-c4cncc(C(O)C(=O)N(C)C)c4)cc23)cc1 (stereo not drawn)	< 50 nM	> 1000 nM	> 1000 nM
CN(C)C(=O)C(O)c1cncc(-c2cnc3[nH]cc(-c4ccccc4)c3c2)c1 (stereo not drawn)	< 50 nM	< 1000 nM	< 1000 nM
CN(C)C(=O)C(O)c1cncc(-c2cnc3[nH]cc(-c4cncnc4)c3c2)c1 (stereo not drawn)	> 500 nM	> 1000 nM	> 1000 nM
Cc1cccc(-c2c[nH]c3ncc(-c4cncc(C(O)C(=O)N(C)C)c4)cc23)c1 (stereo not drawn)	< 50 nM	< 1000 nM	< 1000 nM
CN(C)C(=O)C(O)c1cncc(-c2cnc3[nH]cc(-c4cccc(C(F)(F)F)c4)c3c2)c1 (stereo not drawn)	< 50 nM	> 1000 nM	> 1000 nM
COc1ccc(-c2c[nH]c3ncc(-c4cncc(C(O)C(=O)N(C)C)c4)cc23)cc1 (stereo not drawn)	< 50 nM	> 1000 nM	> 1000 nM
CC(=O)c1ccccc1-c1c[nH]c2ncc(-c3cncc(C(O)C(=O)N(C)C)c3)cc12 (stereo not drawn)	50 to 500 nM	> 1000 nM	> 1000 nM
CN(C)C(=O)C(O)c1cncc(-c2cnc3[nH]cc(-c4ccc(C#N)cc4)c3c2)c1 (stereo not drawn)	50 to 500 nM	> 1000 nM	> 1000 nM
CN(C)C(=O)C(O)c1cncc(-c2cnc3[nH]cc(-c4cccc(F)c4F)c3c2)c1 (stereo not drawn)	< 50 nM	< 1000 nM	< 1000 nM
CN(C)C(=O)C(O)c1cncc(-c2cnc3[nH]cc(-c4ccc(OC(F)(F)F)cc4)c3c2)c1 (stereo not drawn)	50 to 500 nM	> 1000 nM	> 1000 nM
CN(C)C(=O)C(O)c1cncc(-c2cnc3[nH]cc(-c4ccncc4)c3c2)c1 (stereo not drawn)	50 to 500 nM	> 1000 nM	> 1000 nM

SMILES	IC50 [1]	GI50 (Ba/F3 cells, ABL1 WT)	GI50 (Ba/F3 cells, ABL1 T315I)
CN(C)C(=O)C(O)c1cncc(-c2cnc3[nH]cc(-c4cccc(S(C)(=O)=O)c4)c3c2)c1 (stereo not drawn)	> 500 nM	> 1000 nM	> 1000 nM
CN(C)C(=O)C(O)c1cncc(-c2cnc3[nH]cc(-c4ccc5c(c4)OCO5)c3c2)c1 (stereo not drawn)	< 50 nM	< 1000 nM	> 1000 nM
CN(C)C(=O)C(O)c1cncc(-c2cnc3[nH]cc(-c4ccc(F)cc4)c3c2)c1 (stereo not drawn)	< 50 nM	> 1000 nM	> 1000 nM
CN(C)C(=O)C(O)c1cncc(-c2cnc3[nH]cc(-c4cccnc4)c3c2)c1 (stereo not drawn)	50 to 500 nM	> 1000 nM	> 1000 nM
CN(C)C(=O)C(O)c1cncc(-c2cnc3[nH]cc(-c4ccc(CO)cc4)c3c2)c1 (stereo not drawn)	< 50 nM	> 1000 nM	> 1000 nM
CN(C)C(=O)C(O)c1cncc(-c2cnc3[nH]cc(-c4ccc(N(C)C)cc4)c3c2)c1 (stereo not drawn)	50 to 500 nM	> 1000 nM	> 1000 nM
CN(C)C(=O)C(O)c1cncc(-c2cnc3[nH]cc(-c4ccc(C(N)=O)cc4)c3c2)c1 (stereo not drawn)	< 50 nM	> 1000 nM	> 1000 nM
CN(C)C(=O)C(O)c1cncc(-c2cnc3[nH]cc(-c4ccccc4F)c3c2)c1 (stereo not drawn)	< 50 nM	< 1000 nM	< 1000 nM
CCc1ccccc1-c1c[nH]c2ncc(-c3cncc(C(O)C(=O)N(C)C)c3)cc12 (stereo not drawn)	< 50 nM	< 1000 nM	< 1000 nM
CN(C)C(=O)C(O)c1cncc(-c2cnc3[nH]cc(-c4ccccc4OC(F)(F)F)c3c2)c1 (stereo not drawn)	< 50 nM	< 1000 nM	> 1000 nM
CSc1ccccc1-c1c[nH]c2ncc(-c3cncc(C(O)C(=O)N(C)C)c3)cc12 (stereo not drawn)	< 50 nM	< 1000 nM	< 1000 nM
COc1ncccc1-c1c[nH]c2ncc(-c3cncc(C(O)C(=O)N(C)C)c3)cc12 (stereo not drawn)	< 50 nM	< 1000 nM	> 1000 nM
CN(C)C(=O)C(O)c1cncc(-c2cnc3[nH]cc(-c4ccccc4Cl)c3c2)c1 (stereo not drawn)	< 50 nM	< 1000 nM	< 1000 nM
CN(C)C(=O)C(O)c1cncc(-c2cnc3[nH]cc(-c4cccc(N(C)C)c4)c3c2)c1 (stereo not drawn)	< 50 nM	< 1000 nM	> 1000 nM
CN(C)C(=O)C(O)c1cncc(-c2cnc3[nH]cc(-c4cccc5c4OC(F)(F)O5)c3c2)c1 (stereo not drawn)	< 50 nM	< 1000 nM	> 1000 nM
CN(C)C(=O)C(O)c1cncc(-c2cnc3[nH]cc(-c4ccn[nH]4)c3c2)c1 (stereo not drawn)	< 50 nM	> 1000 nM	> 1000 nM
CN(C)C(=O)C(O)c1cncc(-c2cnc3[nH]cc(-c4ccnn4CC(F)(F)F)c3c2)c1 (stereo not drawn)	> 500 nM	> 1000 nM	> 1000 nM
COc1ccccc1-c1c[nH]c2ncc(-c3cnc(N)c(C(O)C(=O)N(C)C)c3)cc12 (stereo not drawn)	< 50 nM	< 1000 nM	< 1000 nM
CN(C)C(=O)C(O)c1cncc(-c2cnc3[nH]cc(-c4ccno4)c3c2)c1 (stereo not drawn)	< 50 nM	> 1000 nM	> 1000 nM
CN(C)C(=O)C(O)c1cncc(-c2cnc3[nH]cc(-c4ccnn4CCO)c3c2)c1 (stereo not drawn)	50 to 500 nM	> 1000 nM	> 1000 nM
COc1ccccc1-c1c[nH]c2ncc(-c3cncc(C(O)C4CC4)c3)cc12 (stereo not drawn)	< 50 nM	< 1000 nM	< 1000 nM
COc1ccccc1-c1c[nH]c2ncc(-c3cncc(C(O)CC(C)C)c3)cc12 (stereo not drawn)	< 50 nM	< 1000 nM	< 1000 nM
